Assays:
[1] = system: chemotherapy-induced myelosuppression in ES-SCLC patients; assay: Study G1T28-02 Part 1 DLTs and myelosuppression endpoints (with E/P); type: in vivo, human
Source text: G1T28-02 (NCT02499770) was a multicentre Phase Ib/IIa study in patients with newly diagnosed ES-SCLC [5]. Eligible patients were aged ≥ 18 years and had histologically or cytologically confirmed ES-SCLC, measurable disease per Response Evaluation Criteria in Solid Tumors (RECIST) version 1.1, an Eastern Cooperative Oncology Group (ECOG) performance status of 0–2, and adequate organ function. […] In the dose-finding Part 1 portion, blood samples for PK analysis were collected at prespecified time points on Cycle 1 Day 1 and Cycle 1 Day 3 (200 mg/m^2 cohort: all patients; 240 mg/m^2 cohort: optional).

[2] = system: CD45+/CD3+ lymphocytes; assay: Ex vivo PHA-stimulated lymphocyte proliferation assay (G1T28-1-01); type: in vivo; conditions: Homo sapiens, 96 mg/m2, 4 h after end of infusion, read-out: maximum mean inhibition of proliferation of CD45+/CD3+ lymphocytes
Description: Healthy male and/or female subjects aged 18–60 years, with a body weight of ≥ 50 kg and a body mass index of 18–32 kg/m^2, were enrolled. […] Following a 1-h exposure to EdU, cells were harvested, processed, and analyzed by flow cytometry to measure the percentage of proliferation through EdU + incorporation in CD45 + /CD3 + cells (T lymphocytes).
Two bone marrow samples (one pre-dose and one at 32 h post-dose) were excluded from analysis owing to contamination with peripheral blood. c Relative percentage of total bone marrow cells in the S phase at 24 and 32 h post-trilaciclib dose (n = 10). Data shown are mean ± standard deviation.

[3] = G1T28-02 Part 1, 200 mg/m2 + E/P (n = 10)
[4] = G1T28-02 Part 1, 240 mg/m2 + E/P (n = 9)
[5] = G1T28-02 Part 1, trilaciclib total (n = 19)

- DLTs reported ([1]; G1T28-02 Part 1, 200 mg/m2 + E/P, Grade 4 thrombocytopenia, and Grade 2 neutropenia resulting in Cycle 2 delay): Two DLTs
- DLTs reported ([1]; G1T28-02 Part 1, 240 mg/m2 + E/P, Grade 2 neutropenia resulting in Cycle 2 delay): one
SMILES: CN1CCN(c2ccc(Nc3ncc4cc5n(c4n3)C3(CCCCC3)CNC5=O)nc2)CC1 [trilaciclib]
- DSN, median (SD) (footnote a) [1, 3]: 6 (5.7) days
- Mean ANC Nadir in Cycle 1 [1, 3]: 1.198e+09 L⁻¹
- Occurrence of ESA administrations [1, 3]: 2 (20.0) n (%)
- Occurrence of FN [1, 3]: 0 n (%)
- Occurrence of G-CSF administration [1, 3]: 5 (50.0) n (%)
- Occurrence of Grade 3 or 4 hematologic laboratory abnormalities [1, 3]: 4 (40.0) n (%)
- Occurrence of IV antibiotic use [1, 3]: 4 (40.0) n (%)
- Occurrence of RBC transfusions on/after Week 5 [1, 3]: 4 (40.0) n (%)
- Occurrence of SN [1, 3]: 4 (40) n (%)
- Occurrence of infection SAEs [1, 3]: 2 (20.0) n (%)
- Occurrence of platelet transfusions [1, 3]: 1 (10.0) n (%)
- Occurrence of pulmonary infection SAEs [1, 3]: 1 (10.0) n (%)
- Patients with any event for MAHE [1, 3]: 6 (60.0) n (%)
- Time to first MAHE, median [1, 3]: 2.6 months
- Mean ANC Nadir in Cycle 1 [1, 4]: 1.653e+09 L⁻¹
- Occurrence of ESA administrations [1, 4]: 0 n (%)
- Occurrence of FN [1, 4]: 0 n (%)
- Occurrence of G-CSF administration [1, 4]: 3 (33.3) n (%)
- Occurrence of Grade 3 or 4 hematologic laboratory abnormalities [1, 4]: 1 (11.1) n (%)
- Occurrence of IV antibiotic use [1, 4]: 1 (11.1) n (%)
- Occurrence of RBC transfusions on/after Week 5 [1, 4]: 1 (11.1) n (%)
- Occurrence of SN [1, 4]: 0 n (%)
- Occurrence of infection SAEs [1, 4]: 1 (11.1) n (%)
- Occurrence of platelet transfusions [1, 4]: 0 n (%)
- Occurrence of pulmonary infection SAEs [1, 4]: 0 n (%)
- Patients with any event for MAHE [1, 4]: 6 (66.7) n (%)
- Time to first MAHE, median [1, 4]: 3.0 months
- DSN, median (SD) (footnote a) [1, 5]: 6 (5.7) days
- Mean ANC Nadir in Cycle 1 [1, 5]: 1.414e+09 L⁻¹
- Occurrence of ESA administrations [1, 5]: 2 (10.5) n (%)
- Occurrence of FN [1, 5]: 0 n (%)
- Occurrence of G-CSF administration [1, 5]: 8 (42.1) n (%)
- Occurrence of Grade 3 or 4 hematologic laboratory abnormalities [1, 5]: 5 (26.3) n (%)
- Occurrence of IV antibiotic use [1, 5]: 5 (26.3) n (%)
- Occurrence of RBC transfusions on/after Week 5 [1, 5]: 5 (26.3) n (%)
- Occurrence of infection SAEs [1, 5]: 3 (15.8) n (%)
- Occurrence of platelet transfusions [1, 5]: 1 (5.3) n (%)
- Occurrence of pulmonary infection SAEs [1, 5]: 1 (5.3) n (%)
- Patients with any event for MAHE [1, 5]: 12 (63.2) n (%)
- Time to first MAHE, median [1, 5]: 2.6 months
- inhibition at 96 mg/m2 [2]: 37.2%

Source: PMC8026479 (Cancer Chemotherapy and Pharmacology, 2021)
